Columns and labels:
Assay in all cases: KINOMEscan
Type in all cases: binding
Conditions in all cases: read-out: % control activity remaining
ACVR1B = target: T1, ACVR1B (Homo sapiens, UniProt P36896)
T1 construct: purchased Eurofins DiscoverX KINOMEscan
T1 sequence (P36896 24-505): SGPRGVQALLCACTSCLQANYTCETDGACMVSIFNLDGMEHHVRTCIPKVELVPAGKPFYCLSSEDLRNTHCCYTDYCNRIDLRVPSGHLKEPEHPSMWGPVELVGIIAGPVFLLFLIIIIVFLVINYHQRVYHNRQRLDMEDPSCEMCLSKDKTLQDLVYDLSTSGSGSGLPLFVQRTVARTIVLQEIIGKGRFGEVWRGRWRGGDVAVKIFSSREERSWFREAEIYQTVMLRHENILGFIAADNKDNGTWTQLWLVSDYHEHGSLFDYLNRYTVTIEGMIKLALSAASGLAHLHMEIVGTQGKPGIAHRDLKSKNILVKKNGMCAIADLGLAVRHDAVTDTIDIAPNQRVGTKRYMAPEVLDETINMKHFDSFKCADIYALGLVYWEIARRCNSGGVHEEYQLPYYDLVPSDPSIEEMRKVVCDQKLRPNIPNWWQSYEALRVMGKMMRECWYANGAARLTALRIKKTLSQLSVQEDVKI

ARK5 = target: T2, ARK5 (Homo sapiens, UniProt O60285)
T2 construct: purchased Eurofins DiscoverX KINOMEscan
T2 sequence (O60285 1-661): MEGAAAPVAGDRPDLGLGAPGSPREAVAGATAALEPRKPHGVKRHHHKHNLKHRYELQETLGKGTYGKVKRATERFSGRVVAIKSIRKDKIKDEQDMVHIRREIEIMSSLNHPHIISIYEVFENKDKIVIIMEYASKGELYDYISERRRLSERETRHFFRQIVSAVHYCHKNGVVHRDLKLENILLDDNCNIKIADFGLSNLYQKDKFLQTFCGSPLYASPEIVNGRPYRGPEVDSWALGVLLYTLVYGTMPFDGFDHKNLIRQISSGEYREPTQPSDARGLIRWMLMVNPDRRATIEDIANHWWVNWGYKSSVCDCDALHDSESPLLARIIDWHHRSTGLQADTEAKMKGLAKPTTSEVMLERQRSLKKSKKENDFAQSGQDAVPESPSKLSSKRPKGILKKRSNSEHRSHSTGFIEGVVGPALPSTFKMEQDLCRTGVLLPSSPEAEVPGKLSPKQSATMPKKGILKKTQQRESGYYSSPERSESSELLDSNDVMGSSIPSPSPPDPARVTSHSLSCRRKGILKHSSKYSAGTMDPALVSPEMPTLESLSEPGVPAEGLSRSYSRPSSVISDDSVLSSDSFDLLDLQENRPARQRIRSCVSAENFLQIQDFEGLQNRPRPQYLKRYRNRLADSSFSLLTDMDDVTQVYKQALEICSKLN

CAMKK2 = target: T3, CAMKK2 (Homo sapiens, UniProt Q96RR4)
T3 construct: purchased Eurofins DiscoverX KINOMEscan
T3 sequence (Q96RR4 whole entry): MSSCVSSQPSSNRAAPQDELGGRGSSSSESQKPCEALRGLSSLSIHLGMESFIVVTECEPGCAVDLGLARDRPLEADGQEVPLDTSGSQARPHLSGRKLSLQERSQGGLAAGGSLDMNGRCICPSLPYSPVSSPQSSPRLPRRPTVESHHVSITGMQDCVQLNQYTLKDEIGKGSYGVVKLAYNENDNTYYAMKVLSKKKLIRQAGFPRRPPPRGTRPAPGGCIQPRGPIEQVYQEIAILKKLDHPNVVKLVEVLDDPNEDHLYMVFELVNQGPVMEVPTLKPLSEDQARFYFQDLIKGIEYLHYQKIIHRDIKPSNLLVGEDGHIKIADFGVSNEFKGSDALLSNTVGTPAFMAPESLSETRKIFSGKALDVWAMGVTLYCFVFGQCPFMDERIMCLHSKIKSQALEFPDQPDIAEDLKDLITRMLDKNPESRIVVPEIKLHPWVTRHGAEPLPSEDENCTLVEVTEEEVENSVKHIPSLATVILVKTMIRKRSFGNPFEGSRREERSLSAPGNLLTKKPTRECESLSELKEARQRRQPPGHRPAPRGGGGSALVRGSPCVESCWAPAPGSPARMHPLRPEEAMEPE

CHEK1 = target: T4, CHEK1 (Homo sapiens, UniProt O14757)
T4 construct: purchased Eurofins DiscoverX KINOMEscan
T4 sequence (O14757 1-476): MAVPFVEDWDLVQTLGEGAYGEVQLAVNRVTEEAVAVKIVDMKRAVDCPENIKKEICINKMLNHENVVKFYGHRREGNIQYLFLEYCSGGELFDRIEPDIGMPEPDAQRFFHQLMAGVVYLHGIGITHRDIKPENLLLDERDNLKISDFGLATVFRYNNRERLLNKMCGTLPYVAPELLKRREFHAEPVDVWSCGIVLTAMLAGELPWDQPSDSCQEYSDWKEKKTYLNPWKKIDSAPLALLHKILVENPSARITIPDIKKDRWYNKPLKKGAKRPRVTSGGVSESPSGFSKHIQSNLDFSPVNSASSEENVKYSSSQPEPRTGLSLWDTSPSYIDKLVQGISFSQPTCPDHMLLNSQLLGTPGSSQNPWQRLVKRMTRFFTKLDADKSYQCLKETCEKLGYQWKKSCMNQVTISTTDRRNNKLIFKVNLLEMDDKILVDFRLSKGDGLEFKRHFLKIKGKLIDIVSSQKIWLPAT

FGFR1 = target: T5, FGFR1 (Homo sapiens, UniProt P11362)
T5 construct: purchased Eurofins DiscoverX KINOMEscan
T5 sequence (P11362 22-822): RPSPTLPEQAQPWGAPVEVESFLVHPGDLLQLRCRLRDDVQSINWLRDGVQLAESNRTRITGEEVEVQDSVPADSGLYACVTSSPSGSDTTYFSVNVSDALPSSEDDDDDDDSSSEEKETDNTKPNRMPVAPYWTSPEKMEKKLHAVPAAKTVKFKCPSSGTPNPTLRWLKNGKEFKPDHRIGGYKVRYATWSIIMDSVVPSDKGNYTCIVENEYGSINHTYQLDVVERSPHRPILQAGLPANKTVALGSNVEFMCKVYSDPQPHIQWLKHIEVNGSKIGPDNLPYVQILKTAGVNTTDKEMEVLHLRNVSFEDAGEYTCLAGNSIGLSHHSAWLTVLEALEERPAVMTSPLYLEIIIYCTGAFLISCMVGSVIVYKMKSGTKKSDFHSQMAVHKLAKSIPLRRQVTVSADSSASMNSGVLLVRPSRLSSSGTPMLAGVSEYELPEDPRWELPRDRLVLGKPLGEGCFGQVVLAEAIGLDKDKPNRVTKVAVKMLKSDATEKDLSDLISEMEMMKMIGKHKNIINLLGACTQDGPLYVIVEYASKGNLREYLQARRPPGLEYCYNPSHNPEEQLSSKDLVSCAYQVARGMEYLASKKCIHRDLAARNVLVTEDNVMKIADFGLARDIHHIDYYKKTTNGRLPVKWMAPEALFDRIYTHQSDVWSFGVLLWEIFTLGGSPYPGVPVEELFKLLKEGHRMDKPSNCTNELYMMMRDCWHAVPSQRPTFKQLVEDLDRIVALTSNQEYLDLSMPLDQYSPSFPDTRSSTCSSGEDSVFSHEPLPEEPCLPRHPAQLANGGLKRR

NEK2 = target: T6, NEK2 (Homo sapiens, UniProt P51955)
T6 construct: purchased Eurofins DiscoverX KINOMEscan
T6 sequence (P51955 1-445): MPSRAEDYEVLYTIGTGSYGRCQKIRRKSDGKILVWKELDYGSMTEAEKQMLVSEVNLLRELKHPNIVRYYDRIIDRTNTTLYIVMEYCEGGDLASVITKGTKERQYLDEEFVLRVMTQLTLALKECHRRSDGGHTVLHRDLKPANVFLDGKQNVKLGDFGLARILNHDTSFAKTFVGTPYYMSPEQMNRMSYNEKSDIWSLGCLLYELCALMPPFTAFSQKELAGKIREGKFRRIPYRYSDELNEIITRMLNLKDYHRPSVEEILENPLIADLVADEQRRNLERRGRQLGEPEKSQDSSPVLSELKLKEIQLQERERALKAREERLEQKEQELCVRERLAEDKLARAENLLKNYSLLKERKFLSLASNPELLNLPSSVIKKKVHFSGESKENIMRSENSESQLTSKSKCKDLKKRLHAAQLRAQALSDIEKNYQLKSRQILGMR

PRKG2 = target: T7, PRKG2 (Homo sapiens, UniProt Q13237)
T7 construct: purchased Eurofins DiscoverX KINOMEscan
T7 sequence (Q13237 1-762): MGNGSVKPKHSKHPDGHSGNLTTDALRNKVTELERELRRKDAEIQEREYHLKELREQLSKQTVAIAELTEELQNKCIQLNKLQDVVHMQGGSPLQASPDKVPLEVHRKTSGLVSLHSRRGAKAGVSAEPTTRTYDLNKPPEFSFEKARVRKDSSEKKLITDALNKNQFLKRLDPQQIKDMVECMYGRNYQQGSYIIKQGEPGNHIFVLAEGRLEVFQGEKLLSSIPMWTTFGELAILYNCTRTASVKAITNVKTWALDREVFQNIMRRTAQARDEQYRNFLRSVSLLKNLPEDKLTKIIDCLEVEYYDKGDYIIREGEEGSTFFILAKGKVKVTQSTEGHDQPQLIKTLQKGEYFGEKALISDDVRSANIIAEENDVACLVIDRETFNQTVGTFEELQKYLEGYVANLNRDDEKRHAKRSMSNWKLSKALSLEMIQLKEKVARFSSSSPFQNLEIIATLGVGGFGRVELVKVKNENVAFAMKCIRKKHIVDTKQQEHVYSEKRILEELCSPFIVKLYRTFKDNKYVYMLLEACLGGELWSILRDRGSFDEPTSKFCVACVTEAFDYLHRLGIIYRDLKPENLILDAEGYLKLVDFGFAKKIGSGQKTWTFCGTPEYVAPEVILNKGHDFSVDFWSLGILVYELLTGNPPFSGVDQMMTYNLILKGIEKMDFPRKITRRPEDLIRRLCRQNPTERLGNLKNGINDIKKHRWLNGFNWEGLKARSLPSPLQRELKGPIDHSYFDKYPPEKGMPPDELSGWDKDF

Row | SMILES | remaining binding at 1 µM (ACVR1B) [%] | remaining binding at 1 µM (ARK5) [%] | remaining binding at 1 µM (CAMKK2) [%] | remaining binding at 1 µM (CHEK1) [%] | remaining binding at 1 µM (FGFR1) [%] | remaining binding at 1 µM (NEK2) [%] | remaining binding at 1 µM (PRKG2) [%]
1 | CN1CCC(CNc2cc(Cl)nn3c(-c4cc5nc(Nc6ccccc6)[nH]c5cc4F)cnc23)CC1 [compound 31, 6-Chloro-3-(6-fluoro-2-(phenylamino)-1H-benzo[d]imidazol-5-yl)-N-((1-methylpiperidin-4-yl)methyl)imidazo[1,2-b]pyridazin-8-amine] | 100 | 100 | 100 | 100 | 87 | 92 | 64
2 | O=C(CN1CCOCC1)N[C@H]1CC[C@H](Nc2cc(Cl)nn3c(-c4ccc5[nH]ncc5c4)cnc23)CC1 [compound 26] | 91 | 100 | 42 | 100 | 94 | 92 | 64
3 | Clc1cc(NCC2CC2)c2ncc(-c3ccc4[nH]ncc4c3)n2n1 [compound 2, 6-Chloro-N-(cyclopropylmethyl)-3-(1H-indazol-5-yl)imidazo[1,2-b]pyridazin-8-amine] | 89 | 99 | 99 | 88 | 99 | 100 | 84
